These are literature values, as cited in US11007152B2, “Pharmaceutical composition comprising amorphous lenalidomide and an antioxidant” (Synthon B.V., priority 2015, dated 2021).

On to `Nc1cccc2c1CN(C1CCC(=O)NC1=O)C2=O` (racemic) [Lenalidomide, (RS)-3-(4-Amino-1-oxo 1,3-dihydro-2H-isoindol-2-yl)piperidine-2,6-dione], for which the solubility in water result was “slightly soluble”.
